This test concerns the target GPR120L receptor (Homo sapiens (Human), UniProt Q5NUL3). Briefly: Beta (β) arrestin 2 Interaction Assay (BRET assay), β-galactosidase enzyme fragment complementation. The class given is cell-based. To be noted: CHO-K1 cells stably expressing the GPR120L receptor; β-arrestin recruitment; 2 hours incubation. As to the method:
Beta (β) arrestin 2 Interaction Assay (BRET assay) was performed using CHO-K1 cells stably expressing the GPR120L receptor using β-galactosidase (Beta gal) enzyme fragment complementation assay. The measurement of GPR120 activation upon agonist activation was directly provided by β-arrestin recruitment. One day before the β-arrestin 2 assay, CHO-K1 cells were seeded and incubated overnight at 37° C. in a 5% CO2 humidified atmosphere. Cells were treated with the test compounds in the various concentrations ranging from 30 μM to 1 nM and incubated for 2 hours for GPCR (GPR120) activation. Extent of Arrestin recruitment was measured by adding detection reagents for Beta gal complementation assay and was further incubated for 1 hour. The chemi-luminescent signal was detected on Polar Star (BMG Labtech). The dose-response curve was analyzed using Sigma Plot/Graph Pad. The EC50 (concentration of the test compounds where 50% of compounds' maximal activity is observed) values were calculated from the dose-response curve.
On the technique in general: BRET reads energy transfer from a luciferase to a nearby fluorophore.

Molecules are shown by their SMILES. pEC50: −log10 of the molar value.

Chain of GPR120L receptor (Q5NUL3 other isoform, or with tags, fused parts or gaps): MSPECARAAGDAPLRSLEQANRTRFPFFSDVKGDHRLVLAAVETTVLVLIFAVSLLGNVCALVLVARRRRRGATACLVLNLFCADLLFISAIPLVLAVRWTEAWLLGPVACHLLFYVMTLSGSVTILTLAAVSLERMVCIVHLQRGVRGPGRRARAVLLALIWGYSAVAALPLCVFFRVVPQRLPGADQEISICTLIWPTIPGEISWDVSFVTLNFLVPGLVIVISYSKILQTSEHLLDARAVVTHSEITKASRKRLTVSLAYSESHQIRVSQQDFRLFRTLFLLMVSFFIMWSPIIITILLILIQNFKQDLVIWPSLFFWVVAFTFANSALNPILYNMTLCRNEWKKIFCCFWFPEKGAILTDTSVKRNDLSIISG

By pEC50 is commonly meant the negative decadic logarithm of the EC50, by convention in mol/L. High values mean a low EC50, low ones a high EC50. Consider `N#CC1(c2ccc(-c3ccc(F)cc3COc3ccc(CCCC(=O)O)cc3)s2)CC1` [Example 1, 4-(4-((2-(5-(1-Cyanocyclopropyl)thiophen-2-yl)-5-fluorobenzyl)oxy)phenyl)butanoic acid], for which the pEC50 is 6.30 to 8.00.

Turning to `N#CC1(c2ccc(-c3ccc(F)cc3COc3ccc(CCC(=O)O)cc3)s2)CC1` [Example 2, 3-(4-((2-(5-(1-Cyanocyclopropyl)thiophen-2-yl)-5-fluorobenzyl)oxy)phenyl)propanoic acid], the negative logarithm of the EC50 (pEC50) was 5.30 to 6.30.

Turning to `CC1(c2ccc(-c3ccc(F)cc3COc3ccc(CCCC(=O)O)cc3)cc2)CC1` [Example 3, 4-(4-((4-Fluoro-4′-(1-methylcyclopropyl)-[1,1′-biphenyl]-2-yl)methoxy)phenyl)butanoic acid], the pEC50 was 6.30 to 8.00.

Turning to `N#CC1(c2ccc(-c3ccc(F)cc3COc3ccc(CCCC(=O)O)cc3)cc2)CC1` [Example 4, 4-(4-((4′-(1-Cyanocyclopropyl)-4-fluoro-[1,1′-biphenyl]-2-yl)methoxy)phenyl)butanoic acid], the pEC50 was 6.30 to 8.00.

Compound `N#CC1(c2ccc(-c3ccc(F)cc3COc3ccc(CCC(=O)O)cc3)cc2)CC1` [Example 5, 3-(4-((4′-(1-Cyanocyclopropyl)-4-fluoro-[1,1′-biphenyl]-2-yl)methoxy)phenyl)propanoic acid] gave a negative logarithm of the EC50 (pEC50) of 6.30 to 8.00.

The compound `N#CC1(c2ccc(-c3ccc(F)cc3COc3ccc(CCC(=O)O)cc3)cn2)CC1` [Example 6, 3-(4-((2-(6-(1-Cyanocyclopropyl)pyridin-3-yl)-5-fluorobenzyl)oxy)phenyl)propanoic acid] gave a pEC50 of 5.30 to 6.30.

The compound `O=C(O)CCCc1ccc(OCc2cc(F)ccc2-c2ccc(C3CC3)cc2)cc1` [Example 7, 4-(4-((4′-Cyclopropyl-4-fluoro-[1,1′-biphenyl]-2-yl)methoxy)phenyl)butanoic acid] gave a pEC50 of 6.30 to 8.00.

The compound `O=C(O)CCCc1ccc(OCc2cc(F)ccc2-c2ccc3c(c2)CCC3)cc1` [Example 8, 4-(4-((2-(2,3-Dihydro-1H-inden-5-yl)-5-fluorobenzyl)oxy)phenyl)butanoic acid] showed a pEC50 of 6.30 to 8.00.

For `O=C(O)CCCc1ccc(OCc2cc(F)ccc2-c2ccc3c(c2)CCCC3)cc1` [Example 9, 4-(4-((5-Fluoro-2-(5,6,7,8-tetrahydronaphthalen-2-yl)benzyl)oxy)phenyl)butanoic acid], the pEC50 was 6.30 to 8.00.

With `O=C(O)CCCc1ccc(OCc2cc(F)ccc2-c2ccc3c(c2)CC3)cc1` [Example 10, 4-(4-((2-(Bicyclo[4.2.0]octa-1(6),2,4-trien-3-yl)-5-fluorobenzyl)oxy)phenyl)butanoic acid], the pEC50 was 6.30 to 8.00.

Turning to `O=C(O)CCCc1ccc(OCc2cc(F)ccc2-c2ccc(C3CC3)s2)cc1` [Example 11, 4-(4-((2-(5-Cyclopropylthiophen-2-yl)-5-fluorobenzyl)oxy)phenyl)butanoic acid], the pEC50 was 6.30 to 8.00.

Turning to `O=C(O)CCCc1ccc(OCc2cc(F)ccc2-c2ccc(C3(O)CCC3)s2)cc1` [Example 12, 4-(4-((5-Fluoro-2-(5-(1-hydroxycyclobutyl)thiophen-2-yl)benzyl)oxy)phenyl)butanoic acid], the pEC50 was 5.30 to 6.30.

In turn, `O=C(O)CCc1ccc(OCc2cc(F)ccc2-c2ccc(C3COC3)cc2)cc1` [Example 13, 3-(4-((4-Fluoro-4′-(oxetan-3-yl)-[1,1′-biphenyl]-2-yl)methoxy)phenyl)propanoic acid] showed a negative logarithm of the EC50 (pEC50) of 4.30 to 5.30.

`O=C(O)CCc1ccc(OCc2cc(F)ccc2-c2ccc(C3(O)CCC3)cc2)cc1` [Example 14, 3-(4-((4-Fluoro-4′-(1-hydroxycyclobutyl)-[1,1′-biphenyl]-2-yl)methoxy)phenyl)propanoic acid] had a pEC50 of 5.30 to 6.30.

Compound `CC1(C)CCC=C1c1ccc(-c2ccc(F)cc2COc2ccc(CCC(=O)O)cc2)cc1` [Example 15, 3-(4-((4′-(5,5-Dimethylcyclopent-1-en-1-yl)-4-fluoro-[1,1′-biphenyl]-2-yl)methoxy)phenyl)propanoic acid] showed a pEC50 of 4.30 to 5.30.

In turn, `O=C(O)CCCc1ccc(OCc2cc(F)ccc2-c2ccc(C3CCCCC3)cc2)cc1` [Example 16, 4-(4-((4′-Cyclohexyl-4-fluoro-[1,1′-biphenyl]-2-yl)methoxy)phenyl)butanoic acid] gave a pEC50 of 5.30 to 6.30.

`O=C(O)CCc1ccc(OCc2cc(F)ccc2-c2ccc(C3COC3)nc2)cc1` [Example 17, 3-(4-((5-Fluoro-2-(6-(oxetan-3-yl)pyridin-3-yl)benzyl)oxy)phenyl)propanoic acid] had a pEC50 of 4.30 to 5.30.

Turning to `N#CC1(c2ccc(-c3ccc(F)cc3COc3ccc(CCC(=O)O)nc3)cc2)CC1` [Example 18, 3-(5-((4′-(1-Cyanocyclopropyl)-4-fluoro-[1,1′-biphenyl]-2-yl)methoxy)pyridin-2-yl)propanoic acid], the pEC50 was 6.30 to 8.00.

For the compound `N#CC1(c2ccc(-c3ccncc3COc3ccc(CCCC(=O)O)cc3)cc2)CC1` [Example 19, 4-(4-((4-(4-(1-Cyanocyclopropyl)phenyl)pyridin-3-yl)methoxy)phenyl)butanoic acid], the pEC50 was 5.30 to 6.30.

On to `O=C(O)CCc1ccc(OCc2cc(F)ccc2-c2ccc3c(c2)CC3)cn1` [Example 20, 3-(5-((2-(Bicyclo[4.2.0]octa-1(6),2,4-trien-3-yl)-5-fluorobenzyl)oxy)pyridin-2-yl)propanoic acid], for which the pEC50 is 5.30 to 6.30.

The compound `N#CC1(c2ccc(-c3ncccc3COc3ccc(CCC(=O)O)cc3)cc2)CC1` [Example 21, 3-(4-((2-(4-(1-Cyanocyclopropyl)phenyl)pyridin-3-yl)methoxy)phenyl)propanoic acid] showed a pEC50 of 4.30 to 5.30.

The compound `O=C(O)CCCc1ccc(OCc2cc(F)ccc2-c2ccc3c(c2)CCO3)cc1` [Example 22, 4-(4-((2-(2,3-Dihydrobenzofuran-5-yl)-5-fluorobenzyl)oxy)phenyl)butanoic acid] had a pEC50 of 6.30 to 8.00.

As to `O=C(O)CCCc1ccc(OCc2cc(F)ccc2-c2cc3c(s2)CCCC3)cc1` [Example 23, 4-(4-((5-Fluoro-2-(4,5,6,7-tetrahydrobenzo[b]thiophen-2-yl)benzyl)oxy)phenyl)butanoic acid], the pEC50 is 6.30 to 8.00.

The compound `O=C(O)CCCc1ccc(OCc2cc(F)ccc2-c2cnc3c(c2)CCC3)cc1` [Example 24, 4-(4-((2-(6,7-Dihydro-5H-cyclopenta[b]pyridin-3-yl)-5-fluorobenzyl)oxy)phenyl)butanoic acid] had a pEC50 of 6.30 to 8.00.

On to `C=C1CCCc2nc(-c3ccc(F)cc3COc3ccc(CCCC(=O)O)cc3)sc21` [Example 25, 4-(4-((5-Fluoro-2-(7-methylene-4,5,6,7-tetrahydrobenzo[d]thiazol-2-yl)benzyl)oxy)phenyl)butanoic acid], for which the pEC50 was 5.30 to 6.30.

`O=C(O)CCCc1ccc(OCc2ccccc2-c2ccc3c(c2)CC3)cc1` [Example 26, 4-(4-((2-(Bicyclo[4.2.0]octa-1(6),2,4-trien-3-yl)benzyl)oxy)phenyl)butanoic acid] had a pEC50 of 6.30 to 8.00.

Take `O=C(O)CCCc1ccc(OCc2ccccc2-c2ccc3c(c2)CCCC3)cc1` [Example 27, 4-(4-((2-(5,6,7,8-tetrahydronaphthalen-2-yl)benzyl)oxy)phenyl)butanoic acid]: the pEC50 was 6.30 to 8.00.

Take `O=C(O)CCCc1ccc(OCc2cc(F)ccc2-c2ccc(C3CCC3)s2)cc1` [Example 28, 4-(4-((2-(5-Cyclobutylthiophen-2-yl)-5-fluorobenzyl)oxy)phenyl)butanoic acid]: the pEC50 was 6.30 to 8.00.

The compound `Cc1cc(-c2ccc(F)cc2COc2ccc(CCCC(=O)O)cc2)ccc1C1CC1` [Example 29, 4-(4-((4′-cyclopropyl-4-fluoro-3′-methyl-[1,1′-biphenyl]-2-yl)methoxy)phenyl)butanoic acid] gave a pEC50 of 6.30 to 8.00.

In turn, `O=C(O)CCCc1ccc(OCc2cc(F)ccc2-c2ccc(C3CC3)nc2)cc1` [Example 30, 4-(4-((2-(6-Cyclopropylpyridin-3-yl)-5-fluorobenzyl)oxy)phenyl)butanoic acid] gave a pEC50 of 6.30 to 8.00.

As to `O=C(O)CCCc1ccc(OCc2cc(F)ccc2-c2cnc(C3CC3)nc2)cc1` [Example 31, 4-(4-((2-(2-Cyclopropylpyrimidin-5-yl)-5-fluorobenzyl)oxy)phenyl)butanoic acid], the pEC50 was 6.30 to 8.00.

As to `O=C(O)CCCc1ccc(OCc2cc(F)ccc2-c2scnc2C2CC2)cc1` [Example 32, 4-(4-((2-(4-Cyclopropylthiazol-5-yl)-5-fluorobenzyl)oxy)phenyl)butanoic acid], the pEC50 is 4.30 to 5.30.

In turn, `O=C(O)CCCc1ccc(OCc2ccccc2-c2ccc3c(c2)CCC3)cc1` [Example 33, 4-(4-((2-(2,3-Dihydro-1H-inden-5-yl)benzyl)oxy)phenyl)butanoic acid] showed a pEC50 of 6.30 to 8.00.

As for `O=C(O)CCCc1ccc(OCc2cc(F)ccc2-c2ccc3c(c2)CCCC3=O)cc1` [Example 34, 4-(4-((5-Fluoro-2-(5-oxo-5,6,7,8-tetrahydronaphthalen-2-yl)benzyl)oxy)phenyl)butanoic acid], the pEC50 was 5.30 to 6.30.

For the compound `O=C(O)CCCc1ccc(OCc2cc(F)ccc2-c2ccc3c(c2)CCC=C3)cc1` [Example 35, 4-(4-((2-(7,8-Dihydronaphthalen-2-yl)-5-fluorobenzyl)oxy)phenyl)butanoic acid], the pEC50 is 6.30 to 8.00.

`C=C1CCCc2cc(-c3ccc(F)cc3COc3ccc(CCCC(=O)O)cc3)ccc21` [Example 36, 4-(4-((5-Fluoro-2-(5-methylene-5,6,7,8-tetrahydronaphthalen-2-yl)benzyl)oxy)phenyl)butanoic acid] gave a pEC50 of 6.30 to 8.00.

Regarding `CC1=CCCc2cc(-c3ccc(F)cc3COc3ccc(CCCC(=O)O)cc3)ccc21` [Example 37], the pEC50 was 5.30 to 6.30.

(Values after patent US10227360B2, “Compounds for use as GPR120 agonists” (PIRAMAL ENTERPRISES LIMITED, priority 2014, dated 2019).)
